For orientation: CC50 means the concentration at which the toxic effect on the cells reaches its halfway point. The low end stands for greater toxicity to the cells, the high end for lower toxicity to the cells.

The structures appear in SMILES notation. Where a name gives a salt, the structure may show the parent alone.

Our source for the CC50 values is PMC6792352, “Limited Chemical Structural Diversity Found to Modulate Thyroid Hormone Receptor in the Tox21 Chemical Library” (Environmental Health Perspectives, 2019).

The data set is described as follows: in vitro. Conditions: rat, gh3-tre-luc cells.

In the case of `C(=C(c1ccccc1)c1ccccc1)c1ccccc1` [Triphenylethylene], the CC50 at 24 h (AC50 (uM) modified / 1000) is above 90 µM. In turn, `CCS(=O)(=O)C(C)(C)S(=O)(=O)CC` [Sulfonmethane] yielded a cytotoxic concentration (CC50) at 24 h (AC50 (uM) modified / 1000, Tox21_110001=Tox21_112150, viability, 1 nM T3 present, 24 h) above 50 µM. With `CN(C)CCCN1c2ccccc2Sc2ccc(C(F)(F)F)cc21` [Triflupromazine hydrochloride], the CC50 at 24 h (AC50 (uM) modified / 1000) came out at 9.02 µM.

`CC(=O)Oc1ccccc1C(=O)O` [Aspirin]: the CC50 at 24 h (AC50 (uM) modified / 1000) was above 90 µM. Same read-out and setting: the value for `CC(C)Cc1ccc([C@H](C)C(=O)O)cc1` [Dexibuprofen] was above 50 µM. Still for that read-out and setting: next, `CO[SiH](C)C` [Methylpolysilicone]: above 100 µM; `Cc1cc(C)n(CO)n1` [(3,5-Dimethyl-1H-pyrazol-1-yl)methanol]: above 90 µM; `CCN(CC)CCNC(C(=O)OCCC(C)C)c1ccccc1` (stereo not drawn) [Camylofin]: above 50 µM. Under “AC50 (uM) modified / 1000, Tox21_110001=Tox21_200144, viability, 1 nM T3 present, 24 h”, `Cc1ccc(N=C=O)cc1N=C=O` [Toluene diisocyanate] gave a CC50 at 24 h above 90 µM. In turn, `Brc1ccccc1-c1ccccc1` [2-Bromobiphenyl] had a CC50 at 24 h (AC50 (uM) modified / 1000) above 90 µM. On the same count and under the same terms, the value for `O=c1[nH]c2ccc([S+]([O-])CCN3CCC(Cc4ccc(F)cc4)CC3)cc2o1` (stereo not drawn) [Besonprodil] was above 90 µM. Consider `CCOC(=O)c1cn2nc(OP(=S)(OCC)OCC)cc2nc1C` [Pyrazophos], for which the CC50 at 24 h (AC50 (uM) modified / 1000, Tox21_110001=Tox21_301359, viability, 1 nM T3 present, 24 h) was above 90 µM. With `CCO[Si](CCC1CCC2OC2C1)(OCC)OCC` (stereo not drawn) [Triethoxy[2-(7-oxabicyclo[4.1.0]hept-3-yl)ethyl]silane], the CC50 at 24 h (AC50 (uM) modified / 1000) is above 90 µM. Still for that read-out and setting: next, `O=C(O)CC(=O)O` [Propanedioic acid]: above 90 µM. Take `CCCCCCCCCCCCCCCC(=O)O[C@@H]1[C@@H](O)[C@@H](O)[C@@H]([C@H](NC(=O)[C@@H]2C[C@@H](CCC)CN2C)[C@H](C)Cl)O[C@@H]1SC` [Clindamycin palmitate hydrochloride]: the CC50 at 24 h (AC50 (uM) modified / 1000) is above 50 µM. Same read-out and setting: the value for `CC(=O)c1ccccc1[N+](=O)[O-]` [2-Nitroacetophenone] was above 90 µM; that for `CN(C)CCOCCN(C)CCO` [2-[{2-[2-(Dimethylamino)ethoxy]ethyl}(methyl)amino]ethanol] was above 90 µM. In turn, `C#C[C@]1(O)CC[C@H]2[C@@H]3CCc4cc(O)ccc4[C@H]3CC[C@@]21C` [17alpha-Ethinylestradiol] displayed a CC50 at 24 h (AC50 (uM) modified / 1000) above 90 µM. On the same count and under the same terms, the value for `CC/C=C\C#N` [(2Z)-2-Pentenenitrile] was above 90 µM; that for `CC(C)NCC(O)COc1ccc(COCCOC(C)C)cc1` (stereo not drawn) [Bisoprolol fumarate] was above 50 µM. On the same count and under the same terms, the value for `CCN(CC)CCOc1ccc(C(O)(Cc2ccc(Cl)cc2)c2ccc(C)cc2)cc1` (stereo not drawn) [Triparanol] was 8.76 µM; that for `CC[N+](C)(C)c1cccc(O)c1` [Edrophonium chloride] was above 20 µM; that for `Nc1ccn([C@@H]2O[C@H](CO)[C@@H](O)C2(F)F)c(=O)n1` [Gemcitabine hydrochloride] was 0.153 µM. The same measure, in the same setting: the value for `CN(C)c1ccc(N(C)C)cc1` [N,N,N',N'-Tetramethyl-p-phenylenediamine] was 58.6 µM. For `c1cc(C(c2ccc(OCC3CO3)cc2)c2ccc(OCC3CO3)cc2)ccc1OCC1CO1` (stereo not drawn) [2,2',2''-[Methanetriyltris(benzene-4,1-diyloxymethanediyl)]trioxirane], the cytotoxic concentration (CC50) at 24 h (AC50 (uM) modified / 1000) was 19.4 µM. For the setting “AC50 (uM) modified / 1000”, `C=C1CC[C@H](O)C/C1=C/C=C1\CCC[C@]2(C)[C@@H]([C@H](C)CCCC(C)(C)O)CC[C@@H]12` [Calcifediol] returned a CC50 at 24 h of 11.5 µM. `CN1CC(=O)N2[C@H](c3ccc4c(c3)OCO4)c3[nH]c4ccccc4c3C[C@@H]2C1=O` [Tadalafil] registered a CC50 at 24 h (AC50 (uM) modified / 1000) above 50 µM.

Consider `O=[N+]([O-])c1cccc(S(=O)(=O)NCCNS(=O)(=O)c2cccc([N+](=O)[O-])c2)c1` [Dinsed], for which, under “AC50 (uM) modified / 1000”, the CC50 at 24 h was above 50 µM. On the same count and under the same terms, next, `CCCCCCCCCCCCCCCC(=O)OCCC1CCN(CCCN2c3ccccc3Sc3ccc(S(=O)(=O)N(C)C)cc32)CC1` [Pipothiazine palmitate]: above 50 µM; `COc1ccc2c3c1O[C@H]1C[C@@H](O)C=C[C@@]31CCN(C)C2` [Galanthamine]: above 50 µM. In turn, `C[C@]12CC[C@H]3[C@@H](CCC4=C(Cl)C(=O)CC[C@@]43C)[C@@H]1CC[C@@H]2O` [Clostebol] came in with a CC50 at 24 h (AC50 (uM) modified / 1000, Tox21_110001=Tox21_111857, viability, 1 nM T3 present, 24 h) above 50 µM. Under “AC50 (uM) modified / 1000, Tox21_110001=Tox21_201442, viability, 1 nM T3 present, 24 h”, `O=[N+]([O-])c1ccccc1O` [2-Nitrophenol] registered a CC50 at 24 h above 90 µM. Take `CC(C)(C)NCC(O)COc1cccc2c1C[C@H](O)[C@H](O)C2` (mixture of isomers) [Nadolol]: the CC50 at 24 h (AC50 (uM) modified / 1000) was above 20 µM. Still for that read-out and setting: next, `CCOC(=O)OCC/C(SC(=O)OCC)=C(\C)N(C=O)Cc1cnc(C)nc1N` [Dicethiamine hydrochloride]: above 50 µM. Same read-out and setting: next, `CC(=O)N(CC(O)CO)c1c(I)c(C(=O)NCC(O)CO)c(I)c(C(=O)NCC(O)CO)c1I` (mixture of isomers) [Iohexol]: above 50 µM.

On to `Cc1ccc(CO)cc1` [4-Methylbenzyl alcohol], for which, for the setting “AC50 (uM) modified / 1000”, the CC50 at 24 h was above 90 µM.

For the compound `CO` [Methanol], the CC50 at 24 h (AC50 (uM) modified / 1000) was above 90 µM.

For the compound `O=C(O)c1cccc(Cl)c1` [3-Chlorobenzoic acid], the CC50 at 24 h (AC50 (uM) modified / 1000, Tox21_110001=Tox21_200325, viability, 1 nM T3 present, 24 h) is above 90 µM. `CC(C)C(=O)OCC(=O)[C@@]12O[C@H](C3CCCCC3)O[C@@H]1C[C@H]1[C@@H]3CCC4=CC(=O)C=C[C@]4(C)[C@H]3[C@@H](O)C[C@@]12C` [Ciclesonide] had a CC50 at 24 h (AC50 (uM) modified / 1000) of 17.7 µM. This lies in the double-digit micromolar range. Still for that read-out and setting: the value for `NC(=O)CC[C@@H]1NC(=O)[C@H](Cc2ccccc2)NC(=O)[C@H](Cc2ccc(O)cc2)NC(=O)CCSSC[C@@H](C(=O)N2CCC[C@H]2C(=O)N[C@H](CCCN=C(N)N)C(=O)NCC(N)=O)NC(=O)[C@H](CC(N)=O)NC1=O` [Desmopressin] was above 50 µM; that for `C/C(=C(\CCOC(=O)c1ccccc1)SS/C(CCOC(=O)c1ccccc1)=C(/C)N(C=O)Cc1cnc(C)nc1N)N(C=O)Cc1cnc(C)nc1N` [Bisbentiamine] was 25.6 µM; that for `Clc1ccc(C(Cn2ccnc2)OCc2ccsc2Cl)c(Cl)c1` (stereo not drawn) [Tioconazole] was 14.7 µM. On the same count and under the same terms, next, `CCN(O)CC` [N,N-Diethylhydroxylamine]: above 90 µM; `O=C(NC(=O)c1c(F)cccc1F)Nc1ccc(Cl)cc1` [Diflubenzuron]: above 90 µM; `CC(=O)OCC[N+](C)(C)C` [Acetylcholine chloride]: above 50 µM.

Turning to `O=C(N/N=C/c1ccccc1O)c1ccncc1` [Salinazid], the CC50 at 24 h (AC50 (uM) modified / 1000) is above 50 µM. `CCOP(=S)(OCC)Oc1cc(-c2ccccc2)on1` [Isoxathion] yielded a CC50 at 24 h (AC50 (uM) modified / 1000, Tox21_110001=Tox21_302209, viability, 1 nM T3 present, 24 h) above 90 µM. As to `Oc1c(Br)c(Br)c(Br)c(Br)c1Br` [Pentabromophenol], under “AC50 (uM) modified / 1000”, it took 33.5 µM to reach half-maximal cytotoxicity (CC50 at 24 h).

As for `CCCCCCOC(=O)C(C)CC` (stereo not drawn) [Hexyl 2-methylbutanoate], the CC50 at 24 h (AC50 (uM) modified / 1000) is above 90 µM.

Consider `C[C@@H](O)[C@H](N)C(=O)O` [L-Threonine], for which, under “AC50 (uM) modified / 1000”, the CC50 at 24 h was above 50 µM. Same read-out and setting: the value for `C=C(C)C(=O)OCCCCCCCC(C)C` [Isodecyl methacrylate] was above 90 µM; that for `Nc1nc(N)c2nc(-c3ccccc3)c(N)nc2n1` [Triamterene] was above 90 µM; that for `FC(F)(F)c1cccc(C2=CCN(CCc3ccc4ccccc4c3)CC2)c1` [Xaliproden hydrochloride] was above 50 µM. `CCOC(=O)[C@H](CCc1ccccc1)N[C@H]1CCCN2CCC[C@@H](C(=O)O)N2C1=O` [Cilazapril] gave a CC50 at 24 h (AC50 (uM) modified / 1000) above 50 µM. Still for that read-out and setting: the value for `Cc1ccc(/C=N/n2c(-c3ccccc3)csc2=S)cc1` [Fezatione] was above 50 µM; that for `NC(=O)NC(N)=O` [Imidodicarbonic diamide] was above 90 µM. The same measure, in the same setting: next, `OCCSc1ccccc1` [2-Phenylmercaptoethanol]: above 90 µM. Same read-out and setting: next, `NS(=O)(=O)c1cc2c(cc1Cl)N=C(CSCc1ccccc1)NS2(=O)=O` [Benzthiazide]: above 20 µM; `O=C(O)C(=O)Cc1c[nH]c2ccccc12` [Indole-3-pyruvic acid]: above 90 µM. Take `Cc1cccc(C)c1NC(=O)CN1CCCC1` [Pyrrocaine]: the CC50 at 24 h (AC50 (uM) modified / 1000) was above 50 µM.

Consider `C[C@]12CC[C@H]3[C@@H](CCC4=CC(=O)CC[C@@]43C)[C@@H]1CC[C@@H]2OC(=O)CCc1ccccc1` [Testosterone 17-phenylpropionate], for which, under “AC50 (uM) modified / 1000, Tox21_110001=Tox21_113116, viability, 1 nM T3 present, 24 h”, the CC50 at 24 h is above 90 µM. `COc1cc2c(cc1N)oc1ccccc12` [2-Methoxy-3-aminodibenzofuran] had a CC50 at 24 h (AC50 (uM) modified / 1000) above 90 µM. As to `CCC(C)Br` (stereo not drawn) [2-Bromobutane], where the note is “AC50 (uM) modified / 1000, Tox21_110001=Tox21_200633, viability, 1 nM T3 present, 24 h”, the CC50 at 24 h was above 100 µM. With `COCCOCCOCCOCCOCCO` [2,5,8,11,14-Pentaoxahexadecan-16-ol], where the note is “AC50 (uM) modified / 1000”, the CC50 at 24 h is above 90 µM.

Take `C#C[C@]1(O)CC[C@H]2[C@@H]3CCC4=CC(=O)CC[C@@H]4[C@H]3CC[C@@]21CC` [Levonorgestrel]: the half-maximal cytotoxic concentration (CC50) at 24 h (AC50 (uM) modified / 1000) is above 90 µM. Still for that read-out and setting: the value for `O=C1c2c(O)ccc([N+](=O)[O-])c2C(=O)c2c([N+](=O)[O-])ccc(O)c21` [1,8-Dihydroxy-4,5-dinitroanthraquinone] was 8.27 µM.
